For experiment [1], the target named is Cap-dependant Endonuclease (CEN) (RNP fraction, PB1-PB2-PA complex) (Influenza A virus (strain A/Wilson-Smith/1933 H1N1) (Influenza A virus (strain A/WS/1933 H1N1)), UniProt P15659). In kind it is biochemical, influenza A/WSN/33 virus.
A further experiment concerns influenza virus. As to the kind of experiment: microbe, parasite or virus in culture. In kind it is cell-based. Particulars: MDBK or MDCK cells, 3 days, WST-8. (Tetrazolium dyes change colour on reduction, which living cells bring about.)
[2] abbreviates: parent compounds (Reference examples), room temperature, 60 minutes.
[3] abbreviates: unidentified influenza virus, 72 h, read-out: CPE EC50, parent compounds (Reference examples).
[4] abbreviates: parent compounds (Reference examples), read-out: CPE EC50.

One may read the IC50 as the concentration at which inhibition is half-maximal. By EC50 is commonly meant the concentration needed to bring the measured effect to its halfway point.

Read-outs that look alike come from different tables or passages of the source.

Turning to `Cc1cccc2c1CCc1c(C)cccc1C2N1CN([C@H](C)C(F)(F)F)C(=O)c2c(O)c(=O)ccn21` [Reference example 632], in experiment [1] (setting [2]), the concentration for half-maximal inhibition (IC50) came out at 132 nM. Besides, the EC50 with influenza virus (setting [3]) was found to be 38 nM.
The like results for `C[C@@H](N1CN(C2c3cccc(F)c3CCc3c(F)cccc32)n2ccc(=O)c(O)c2C1=O)C(F)(F)F` [Reference example 638] were, in that order, 130 nM and 21 nM.
Compound `CC(C)N1C(=O)c2c(OCc3ccccc3)c(=O)ccn2N(C2c3ccccc3CCc3ccccc32)C1c1ccc(Cl)cc1` (centres unmarked) [Reference example 527] gave an IC50 in experiment [1] of 127 nM. The EC50 in the experiment on influenza virus (setting [4]) came to 88 nM.
On to `Cc1cccc2c1SCc1cccc(Cl)c1[C@@H]2N1CN([C@H](C)C(F)(F)F)C(=O)c2c(O)c(=O)ccn21` [compound 768], for which, in experiment [1] (setting [2]), the IC50 was found to be 15.3 nM. The EC50 in the experiment with influenza virus (setting [3]) turned out to be 3.64 nM.
For `Cc1cccc2c1CSc1c(C)cccc1[C@H]2N1CN([C@H](C)C(F)(F)F)C(=O)c2c(O)c(=O)ccn21` [Reference example 613], half-maximal inhibition in experiment [1] (IC50) required 173 nM. Further, the EC50 in the experiment on influenza virus (setting [3]) amounted to 18 nM.
In the case of `C[C@@H](N1CN([C@H]2c3cc(F)c(F)cc3CSc3ccccc32)n2ccc(=O)c(O)c2C1=O)C(F)(F)F` [compound 668], the IC50 in experiment [1] came to 12.6 nM. Also, the EC50 in the experiment with influenza virus (setting [3]) stood at 3.84 nM.
`C[C@@H](N1CN([C@@H]2c3ccccc3SCc3cccc(N(C)C)c32)n2ccc(=O)c(O)c2C1=O)C(F)(F)F` [compound 752]: the IC50 in experiment [1] (setting [2]) was found to be 14.2 nM. Moreover, the EC50 in the experiment with influenza virus (setting [3]) came to 3.12 nM.
The like results for `C[C@@H](N1CN([C@@H]2c3ccccc3SCc3cccc(Cl)c32)n2cc(B(O)O)c(=O)c(O)c2C1=O)C(F)(F)F` [compound 707] were, in that order, 40.2 nM and 3.05 nM.
The like results for `C[C@@H](N1CN([C@H]2c3ccc(F)cc3CSc3c(Cl)cccc32)n2ccc(=O)c(O)c2C1=O)C(F)(F)F` [Reference example 602] were, in that order, 5 nM and 4 nM.
The like results for `C[C@@H](N1CN(C2c3ccc(F)cc3CCc3cc(F)ccc32)n2ccc(=O)c(O)c2C1=O)C(F)(F)F` [Reference example 640] were, in that order, 57 nM and 6 nM.
For `C[C@@H](N1CN([C@@H]2c3ccccc3SCc3cccc(C4CC4)c32)n2ccc(=O)c(O)c2C1=O)C(F)(F)F` [compound 691], the IC50 in experiment [1] (setting [2]) stood at 3.67 nM. The EC50 in the experiment with influenza virus (setting [3]) came to 4.05 nM.
`COC[C@H](C)N1C(=O)c2c(O)c(=O)ccn2N(C2c3ccccc3CCc3ccccc32)C1CCN(C)C` (some centres unmarked) [Reference example 644] returned an IC50 in experiment [1] of 238 nM. Further, in the experiment on influenza virus (setting [3]), the EC50 came to 60 nM.
In turn, `C[C@@H](N1CN([C@H]2c3cccc(F)c3SCc3cccc(Cl)c32)n2ccc(=O)c(O)c2C1=O)C(F)(F)F` [Reference example 622] yielded an IC50 in experiment [1] of 89 nM. For the same compound, the EC50 in the experiment with influenza virus (setting [3]) came to 12 nM.
On to `Cc1cccc2c1[C@@H](N1CN([C@H](C)C(F)(F)F)C(=O)c3c(O)c(=O)ccn31)c1ccccc1SC2` [Reference example 662], for which the IC50 in experiment [1] (setting [2]) turned out to be 316 nM. Besides, the EC50 in the experiment on influenza virus (setting [3]) turned out to be 22 nM.
For `C[C@@H](N1CN(C2c3ccccc3CCc3cccc(Cl)c32)n2ccc(=O)c(O)c2C1=O)C(F)(F)F` (some centres unmarked) [compound 686], in experiment [1] (setting [2]), the IC50 came out at 15.1 nM. Moreover, the EC50 in the experiment with influenza virus (setting [3]) came to 7.86 nM.
The corresponding values for `O=C1c2c(O)c(=O)ccn2N([C@@H]2c3ccccc3SCc3cccc(Cl)c32)[C@H]2COCCN12` [compound 682] are 19.7 nM and 3.5 nM.
The corresponding values for `C[C@@H](N1CN([C@@H]2c3ccccc3CCc3c(Cl)cccc32)n2ccc(=O)c(O)c2C1=O)C(F)(F)F` [Reference example 641] are 46 nM and 23 nM.
The like results for `CCc1cccc2c1[C@H](N1CN([C@H](C)C(F)(F)F)C(=O)c3c(O)c(=O)ccn31)c1ccccc1SC2` [compound 731] were, in that order, 5.76 nM and 2.08 nM.
On to `C#Cc1cccc2c1[C@H](N1CN([C@H](C)C(F)(F)F)C(=O)c3c(O)c(=O)ccn31)c1cccc(F)c1SC2` [compound 726], for which the IC50 in experiment [1] (setting [2]) was determined as 3.74 nM. In addition, the 50% effective concentration (EC50) with influenza virus (setting [3]) worked out at 3.93 nM.
On to `CCc1cccc2c1[C@H](N1CN([C@H](C)C(F)(F)F)C(=O)c3c(O)c(=O)ccn31)c1cccc(F)c1SC2` [compound 724], for which the IC50 in experiment [1] (setting [2]) was 5.07 nM. The EC50 in the experiment with influenza virus (setting [3]) turned out to be 6.33 nM.
`N#CCN1CN(C(c2ccccc2)c2ccccc2)n2ccc(=O)c(O)c2C1=O` [Reference example 574]: the IC50 in experiment [1] (setting [2]) was 165 nM. Also, in the experiment with influenza virus (setting [3]), the EC50 was 442 nM.
In the case of `O=C1c2c(O)c(=O)ccn2N(C2c3ccccc3CCc3ccccc32)CN1C1COC1` [Reference example 629], the IC50 in experiment [1] (setting [2]) worked out at 89 nM. In the experiment with influenza virus (setting [3]), the EC50 was 64 nM.
For the compound `COc1cccc2c1CSc1ccccc1[C@H]2N1CN([C@H](C)C(F)(F)F)C(=O)c2c(O)c(=O)ccn21` [Reference example 600], the half-inhibitory concentration (IC50) in experiment [1] (setting [2]) came to 59 nM. Also, the EC50 in the experiment on influenza virus (setting [3]) amounted to 36 nM.
The corresponding values for `CC(=O)c1cn2c(c(O)c1=O)C(=O)N([C@H](C)C(F)(F)F)CN2[C@H]1c2cc(F)c(F)cc2CSc2ccccc21` [compound 692] are 36.9 nM and 9.64 nM.
The corresponding values for `C[C@@H](N1CN([C@H]2c3cc(F)ccc3CSc3c(F)cccc32)n2ccc(=O)c(O)c2C1=O)C(F)(F)F` [Reference example 656] are 70 nM and 19 nM.
`C[C@@H](N1CN([C@@H]2c3cccc(F)c3CSc3c(Cl)cccc32)n2ccc(=O)c(O)c2C1=O)C(F)(F)F` [Reference example 597] displayed an IC50 in experiment [1] of 339 nM. Further, the EC50 in the experiment on influenza virus (setting [3]) is 49 nM.
Regarding `Cc1cccc2c1CCc1ccccc1C2N1CN([C@H](C)C(F)(F)F)C(=O)c2c(O)c(=O)ccn21` (some centres unmarked) [Reference example 631], the IC50 in experiment [1] (setting [2]) was found to be 75 nM. In addition, in the experiment with influenza virus (setting [3]), the EC50 is 41 nM.
The corresponding values for `C[C@@H](N1CN([C@@H](c2ccccc2)c2ccccc2Cl)n2ccc(=O)c(O)c2C1=O)C(F)(F)F` [Reference example 651] are 56 nM and 13 nM.
In turn, `COCCC(=O)Oc1c2n(ccc1=O)N([C@@H]1c3ccccc3SCc3c(Cl)cccc31)CN([C@H](C)C(F)(F)F)C2=O` [Example 108] yielded an IC50 in experiment [1] of 37 nM. Further, the EC50 in the experiment on influenza virus (setting [4]) came out at 19 nM.
As to `C[C@@H](N1CN([C@H](c2ccccc2)c2ccccc2Cl)n2ccc(=O)c(O)c2C1=O)C(F)(F)F` [Reference example 652], the half-inhibitory concentration (IC50) in experiment [1] (setting [2]) is 330 nM. Moreover, the EC50 with influenza virus (setting [3]) is 79 nM.
The corresponding values for `C[C@@H](N1CN(C(c2ccc(F)cc2)c2ccc(F)cc2)n2ccc(=O)c(O)c2C1=O)C(F)(F)F` [Reference example 649] are 182 nM and 51 nM.
Consider `COCCCC1N(CC(F)(F)F)C(=O)c2c(O)c(=O)ccn2N1C1c2ccc(F)cc2CCc2cc(F)ccc21` (centres unmarked) [Reference example 643], for which the IC50 in experiment [1] (setting [2]) is 163 nM. Moreover, the EC50 in the experiment on influenza virus (setting [3]) was determined as 132 nM.
The corresponding values for `C[C@@H](CO)N1CN(C2c3ccccc3CSc3ccccc32)n2ccc(=O)c(O)c2C1=O` (some centres unmarked) [Reference example 375] are 37 nM and 73 nM.
The corresponding values for `C[C@@H](N1CN([C@@H]2c3ccccc3SCc3cccc(Cl)c32)n2cc(Cl)c(=O)c(O)c2C1=O)C(F)(F)F` [compound 762] are 31.5 nM and 5.9 nM.
The corresponding values for `C[C@@H](N1CN([C@@H]2c3ccccc3CCc3c(F)cccc32)n2ccc(=O)c(O)c2C1=O)C(F)(F)F` [Reference example 634] are 103 nM and 17 nM.
`C[C@@H](N1CN(C(c2ccccc2)c2ccc(Cl)cc2)n2ccc(=O)c(O)c2C1=O)C(F)(F)F` (some centres unmarked) [Reference example 650]: the IC50 in experiment [1] (setting [2]) is 219 nM. Moreover, the EC50 with influenza virus (setting [3]) is 103 nM.
`C[C@@H](N1CN([C@@H]2c3ccccc3SCc3c(Cl)cccc32)n2ccc(=O)c(OCOC(=O)NCCN)c2C1=O)C(F)(F)F` [Example 178]: in experiment [1], it took 61 nM to reach half-maximal inhibition (IC50). In addition, the half-maximal effective concentration (EC50) in the experiment on influenza virus (setting [4]) amounted to 75 nM.
In the case of `COCCCC1N(CC(F)(F)F)C(=O)c2c(O)c(=O)ccn2N1C1c2ccccc2CCc2ccccc21` (centres unmarked) [Reference example 642], it took 256 nM to reach half-maximal inhibition in experiment [1] (IC50). Besides, the EC50 in the experiment on influenza virus (setting [3]) is 94 nM.
As for `CCN(CC)CCN1CN(C2c3ccccc3CCc3ccccc32)n2ccc(=O)c(O)c2C1=O` [Reference example 490], in experiment [1] (setting [2]), the IC50 was 212 nM. Besides, the EC50 in the experiment on influenza virus (setting [3]) was determined as 468 nM.
The corresponding values for `C[C@@H](N1CN(C(c2ccccc2Cl)c2ccccc2Cl)n2ccc(=O)c(O)c2C1=O)C(F)(F)F` [Reference example 648] are 132 nM and 59 nM.
The corresponding values for `C[C@@H](N1CN([C@H]2c3ccccc3CSc3ccccc32)n2cc(CO)c(=O)c(O)c2C1=O)C(F)(F)F` [compound 712] are 16.4 nM and 6.45 nM.
Take `CC(O)c1cn2c(c(O)c1=O)C(=O)N([C@H](C)C(F)(F)F)CN2[C@@H]1c2ccccc2SCc2cccc(Cl)c21` (some centres unmarked) [compound 710]: the IC50 in experiment [1] worked out at 20.6 nM. Further, the EC50 in the experiment on influenza virus (setting [3]) amounted to 9.81 nM.
On to `COc1cccc2c1[C@H](N1CN([C@H](C)C(F)(F)F)C(=O)c3c(O)c(=O)ccn31)c1ccccc1SC2` [compound 728], for which, in experiment [1] (setting [2]), the IC50 is 74.7 nM. Further, the concentration for a half-maximal effect (EC50) in the experiment with influenza virus (setting [3]) was determined as 4.32 nM.
As to `COCC[C@@H]1N([C@H](C)C(F)(F)F)C(=O)c2c(O)c(=O)ccn2N1C1c2ccccc2CCc2ccccc21` [Reference example 645], the IC50 in experiment [1] (setting [2]) stood at 105 nM. For the same compound, the EC50 with influenza virus (setting [3]) came to 16 nM.
The like results for `C[C@@H](N1CN([C@@H]2c3cccc(F)c3SCc3cccc(Br)c32)n2ccc(=O)c(O)c2C1=O)C(F)(F)F` [compound 771] were, in that order, 5.89 nM and 4.05 nM.
In turn, `C[C@@H](N1CN([C@@H]2c3ccccc3SCc3c2ccc(F)c3F)n2ccc(=O)c(O)c2C1=O)C(F)(F)F` [compound 711] yielded an IC50 in experiment [1] of 5.57 nM. Further, the EC50 in the experiment with influenza virus (setting [3]) was determined as 4.28 nM.

Values taken from patent publication US10202379B2, “Substituted polycyclic carbamoyl pyridone derivative prodrug” (priority 2010, dated 2019).
